Laboratory results: PubChem BioAssay AID2579 (University of Pittsburgh Molecular Library Screening Center, 2010)
Activity calls are given as the source filed them. How the calls were made is not given here.

What follows are compounds tested against Glucose-6-phosphate 1-dehydrogenase (Leuconostoc mesenteroides) (UniProt P11411) (assay: Leuconostoc G6PDH inhibition potency, SAR follow-up, counter-screen for TbHK1 inhibitor project, biochemical, analogue series, IC50 (AID 2579)). Conditions: Purified L. mesenteroides G6PDH enzyme assay, counterscreen.
Glucose-6-phosphate 1-dehydrogenase (Leuconostoc mesenteroides), sequence (P11411 whole entry, looked up): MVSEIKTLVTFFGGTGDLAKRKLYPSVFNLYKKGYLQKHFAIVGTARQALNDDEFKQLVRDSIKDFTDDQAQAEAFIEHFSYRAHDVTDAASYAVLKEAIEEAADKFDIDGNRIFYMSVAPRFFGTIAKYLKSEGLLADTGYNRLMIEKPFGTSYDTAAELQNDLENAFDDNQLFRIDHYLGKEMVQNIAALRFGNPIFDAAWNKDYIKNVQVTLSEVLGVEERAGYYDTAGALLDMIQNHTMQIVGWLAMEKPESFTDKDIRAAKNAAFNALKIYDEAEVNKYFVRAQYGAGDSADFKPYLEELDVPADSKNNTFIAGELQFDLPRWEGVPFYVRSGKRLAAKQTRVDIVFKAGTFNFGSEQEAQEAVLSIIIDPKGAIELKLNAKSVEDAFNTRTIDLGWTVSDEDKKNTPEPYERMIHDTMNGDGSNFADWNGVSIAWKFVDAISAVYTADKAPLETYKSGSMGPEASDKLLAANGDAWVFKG
For COc1ccc(N2C(=O)c3ccc(Cl)cc3C2=O)cc1, the IC50 was > 25 µM (inactive).
In the case of CC(C)(C)c1ccc(C(=O)Nc2cc(Cl)c(Cl)cc2C(=O)O)cc1, the IC50 was > 25 µM (inactive).
For COc1ccc(C(=O)Nc2cc(Cl)ccc2O)cc1, the IC50 was > 25 µM (inactive).
In the case of COc1ccc(C(=O)Nc2cc(Cl)c(C)cc2C(=O)O)cc1, the IC50 was > 25 µM (inactive).
CC(C)(C)c1ccc(C(=O)Nc2cc(Cl)ccc2-c2nn[nH]n2)cc1 was tested, and the IC50 was > 25 µM (inactive).
CC(C)(C)c1ccc(C(=O)Nc2cc(Cl)c(F)cc2C(=O)O)cc1 was tested, and the IC50 was > 25 µM (inactive).
With CC(C)(C)c1ccc(C(=O)Nc2cc(Cl)ccc2O)cc1 the IC50 was > 25 µM (inactive).
For CC(C)(C)c1ccc(C(=O)Nc2cc(Br)ccc2C(=O)O)cc1, the IC50 was > 25 µM (inactive).
C=C(C)c1ccc(C(=O)Nc2cc(Cl)ccc2C(=O)O)cc1 was tested, and the IC50 was > 25 µM (inactive).
With CC1(c2ccc(C(=O)Nc3cc(Cl)ccc3C(=O)O)cc2)CC1 the IC50 was > 25 µM (inactive).
CC(C)(C)c1ccc(C(=O)Nc2cc(Cl)c(Br)cc2C(=O)O)cc1 was tested, and the IC50 was > 25 µM (inactive).
For COc1ccc(C(=O)Nc2cc(Cl)c(Br)cc2C(=O)O)cc1, the IC50 was > 25 µM (inactive).
Cc1cc(C(C#N)c2ccc(Cl)cc2)c(Cl)cc1NC(=O)c1cc(I)cc(I)c1O (centres undefined) was tested, and the IC50 was > 25 µM (inactive).
For O=c1c(O)c(-c2ccc(O)c(O)c2)oc2cc(O)cc(O)c12, the IC50 was > 25 µM (inactive).
